Results from US11878973B2, “Bicyclic compounds and their uses” (NOVARTIS AG, priority 2021, dated 2024).
pIC50: −log10 of the molar value. Like-named read-outs stand apart in the source and are kept apart here.

Experiments:
WRN helicase = WRN helicase (Homo sapiens (Human), UniProt Q14191); experiment: In vitro enzymatic activity assay on WRN helicase (DNA dependent ATPase assay, ADP-Glo); format: biochemical; settings: geometric means of at least 2 determinations; read-out: WRN ATPase Activity (IC50)
Chain of WRN helicase (Q14191 517-1238): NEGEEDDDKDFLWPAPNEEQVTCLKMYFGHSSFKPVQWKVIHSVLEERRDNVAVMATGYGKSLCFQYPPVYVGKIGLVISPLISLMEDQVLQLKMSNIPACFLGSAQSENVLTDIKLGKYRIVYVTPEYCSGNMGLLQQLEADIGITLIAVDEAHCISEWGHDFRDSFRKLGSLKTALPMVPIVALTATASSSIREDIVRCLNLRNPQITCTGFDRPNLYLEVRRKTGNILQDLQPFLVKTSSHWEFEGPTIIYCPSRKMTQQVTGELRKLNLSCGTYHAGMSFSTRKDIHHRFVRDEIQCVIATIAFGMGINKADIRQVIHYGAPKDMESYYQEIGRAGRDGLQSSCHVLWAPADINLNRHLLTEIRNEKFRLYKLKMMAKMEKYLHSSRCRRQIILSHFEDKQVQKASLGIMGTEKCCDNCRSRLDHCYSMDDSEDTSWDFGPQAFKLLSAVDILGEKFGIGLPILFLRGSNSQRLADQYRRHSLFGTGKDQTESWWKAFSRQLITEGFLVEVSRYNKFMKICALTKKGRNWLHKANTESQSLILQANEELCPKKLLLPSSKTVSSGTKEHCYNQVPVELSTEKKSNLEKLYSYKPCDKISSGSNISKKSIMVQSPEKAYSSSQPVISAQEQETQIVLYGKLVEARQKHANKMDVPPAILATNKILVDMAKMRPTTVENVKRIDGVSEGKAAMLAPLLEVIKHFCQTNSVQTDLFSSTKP
Description: An ATPase assay was set up to measure the DNA dependent ATP hydrolysis activity of WRN helicase. This assay was used also to assess the inhibition properties of compounds of the invention on DNA dependent WRN ATPase activity.
The core helicase motif of the WRN protein (aa N517-P1238) was produced for this assay (protein production as described above). […] The ADP-Glo assay kit (Promega, Madison, WI) allowing the quantification of ADP produced in ATP hydrolysis reactions was used for setting up this assay.
Time course experiments were first performed in order to determine the best enzymatic assay conditions (including buffer conditions, reaction time and concentrations of protein, ATP and DNA substrates). A typical reaction consists of 10 nM WRN protein, 0.2 nM FLAP26, and 300 micromolar ATP in the following assay buffer: 30 mM Tris pH7.5, 2 mM MgCl2, 0.02% BSA, 50 mM NaCl, 0.1% pluronic F127 prepared in DNAse free water. To evaluate the inhibition properties of compounds of the invention, serial dilutions were prepared in DMSO (10 half log dilutions from a 10 mM DMSO solution). […] The reaction was started by addition of 2.5 microliters of FLAP26 at 0.4 nM and incubated for 30 minutes at room temperature. The reaction was stopped with the addition of 5 microliters of the first ADP-Glo reagent and incubated for one hour to remove the excess amount of ATP. Afterwards, 10 microliters of ATP detection reagent was added and incubated for an additional hour before reading. Luminescence output was recorded using Tecan 1000 reader, with 5 minutes delay before reading. Each concentration of compound was tested in duplicates in the assay plate.
Following normalization of activity values for the wells to % inhibition (% inhibition=[(high control-sample)/(high control-low control)]×100), IC50 fitting was carried out from the duplicate determinations present on each plate according to [4]. Data analysis can also be carried out using commercially available software designed to derive IC50 values using 4-parameter fits (e.g. GraphPad Prism, XL fit). The reported IC50 values are the geometrical means of at least 2 independent replicates.

SW48 cells = experiment: Proliferation assay SW48 (CellTiterGlo, 96 hours)
DLD1-WRN-KO cells = experiment: Proliferation assay DLD1-WRN-KO (CellTiterGlo, 96 hours; off-target effects); settings: read-out: Proliferation Assay DLD1-WRN-KO (GI50)
[1] = Homo sapiens, SW48, read-out: Proliferation Assay SW48 (GI50)

With `CCc1c(N2CCN(C(=O)c3ncnc(C)c3O)CC2)c(=O)n2nc(C3=CCOCC3)nc2n1CC(=O)Nc1ccc(S(F)(F)(F)(F)F)cc1Cl` [Example 51, N-(2-chloro-4-(pentafluorosulfanyl)phenyl)-2-(2-(3,6-dihydro-2H-pyran-4-yl)-5-ethyl-6-(4-(5-hydroxy-6-methylpyrimidine-4-carbonyl)piperazin-1-yl)-7-oxo-[1,2,4]triazolo[1,5-a]pyrimidin-4(7H)-yl)acetamide] the pIC50 (WRN helicase) was 7.40, the GI50 (SW48 cells; [1]) was 30 nM and the GI50 (DLD1-WRN-KO cells; Homo sapiens) was > 10000 nM.
`CCc1c(N2CCN(C(=O)c3ncccc3O)CC2)c(=O)n2nc(N3CCCC(F)C3)nc2n1CC(=O)Nc1ccc(C(F)(F)F)nc1Cl` (racemic) [Example 16, rac-N-(2-chloro-6-(trifluoromethyl)pyridin-3-yl)-2-(5-ethyl-2-(3-fluoropiperidin-1-yl)-6-(4-(3-hydroxypicolinoyl)piperazin-1-yl)-7-oxo-[1,2,4]triazolo[1,5-a]pyrimidin-4(7H)-yl)acetamide] was tested, and the pIC50 (WRN helicase) was 6.64, the GI50 (SW48 cells; [1]) was 320 nM and the GI50 (DLD1-WRN-KO cells; Homo sapiens) was > 10000 nM.
In the case of `CCc1c(N2CCN(C(=O)c3nc(C)ccc3O)CC2)c(=O)n2nc(C3=CCOCC3)nc2n1CC(=O)Nc1ccc(C(F)(F)F)cc1` [Example 74, 2-(2-(3,6-dihydro-2H-pyran-4-yl)-5-ethyl-6-(4-(3-hydroxy-6-methylpicolinoyl)piperazin-1-yl)-7-oxo-[1,2,4]triazolo[1,5-a]pyrimidin-4(7H)-yl)-N-(4-(trifluoromethyl)phenyl)acetamide], the pIC50 (WRN helicase) was 7.30, the GI50 (SW48 cells; [1]) was 70 nM and the GI50 (DLD1-WRN-KO cells; Homo sapiens) was > 10000 nM.
In the case of `CCc1c(N2CCN(C(=O)c3ncccc3O)CC2)c(=O)n2nc(N3CCCC(F)C3)nc2n1CC(=O)Nc1ccc(C(F)(F)F)cc1C` (racemic) [Example 14, rac-2-(5-ethyl-2-(3-fluoropiperidin-1-yl)-6-(4-(3-hydroxypicolinoyl)piperazin-1-yl)-7-oxo-[1,2,4]triazolo[1,5-a]pyrimidin-4(7H)-yl)-N-(2-methyl-4-(trifluoromethyl)phenyl)acetamide], the pIC50 (WRN helicase) was 6.85, the GI50 (SW48 cells; [1]) was 480 nM and the GI50 (DLD1-WRN-KO cells; Homo sapiens) was > 10000 nM.
`CCc1c(N2CCN(C(=O)c3ncc(Cl)cc3O)CC2)c(=O)n2nc(C3=CCOCC3)nc2n1CC(=O)Nc1ccc(C(F)(F)F)cc1C` [Example 65, 2-(6-(4-(5-chloro-3-hydroxypicolinoyl)piperazin-1-yl)-2-(3,6-dihydro-2H-pyran-4-yl)-5-ethyl-7-oxo-[1,2,4]triazolo[1,5-a]pyrimidin-4(7H)-yl)-N-(2-methyl-4-(trifluoromethyl)phenyl)acetamide] was tested, and the pIC50 (WRN helicase) was 7.30, the GI50 (SW48 cells; [1]) was 80 nM and the GI50 (DLD1-WRN-KO cells; Homo sapiens) was 7800 nM.
For `CCc1c(N2CCN(C(=O)c3ncncc3O)CC2)c(=O)n2nc(C3=CCOCC3)nc2n1CC(=O)Nc1ccc(S(F)(F)(F)(F)F)cc1Cl` [Example 52, N-(2-chloro-4-(pentafluorosulfanyl)phenyl)-2-(2-(3,6-dihydro-2H-pyran-4-yl)-5-ethyl-6-(4-(5-hydroxypyrimidine-4-carbonyl)piperazin-1-yl)-7-oxo-[1,2,4]triazolo[1,5-a]pyrimidin-4(7H)-yl)acetamide], the pIC50 (WRN helicase) was 7.40, the GI50 (SW48 cells; [1]) was 40 nM and the GI50 (DLD1-WRN-KO cells; Homo sapiens) was > 10000 nM.
With `CCc1c(N2CCN(C(=O)c3nc(C)cc(F)c3O)CC2)c(=O)n2nc(C3=CCOCC3)nc2n1CC(=O)Nc1ccc(C(F)(F)F)nc1Cl` [Example 49, N-(2-chloro-6-(trifluoromethyl)pyridin-3-yl)-2-(2-(3,6-dihydro-2H-pyran-4-yl)-5-ethyl-6-(4-(4-fluoro-3-hydroxy-6-methylpicolinoyl)piperazin-1-yl)-7-oxo-[1,2,4]triazolo[1,5-a]pyrimidin-4(7H)-yl)acetamide] the pIC50 (WRN helicase) was 6.92, the GI50 (SW48 cells; [1]) was 120 nM and the GI50 (DLD1-WRN-KO cells; Homo sapiens) was > 10000 nM.
`CCc1c(N2CCN(C(=O)c3ncnc(C)c3O)C[C@@H]2C)c(=O)n2nc(C3=CCOCC3)nc2n1CC(=O)Nc1ccc(C(F)(F)F)cc1Cl` [Example 87, (S)—N-(2-chloro-4-(trifluoromethyl)phenyl)-2-(2-(3,6-dihydro-2H-pyran-4-yl)-5-ethyl-6-(4-(5-hydroxy-6-methylpyrimidine-4-carbonyl)-2-methylpiperazin-1-yl)-7-oxo-[1,2,4]triazolo[1,5-a]pyrimidin-4(7H)-yl)acetamide] was tested, and the pIC50 (WRN helicase) was 6.96, the GI50 (SW48 cells; [1]) was 60 nM and the GI50 (DLD1-WRN-KO cells; Homo sapiens) was > 10000 nM.
With `CCc1c(N2CCN(C(=O)c3ncccc3O)CC2)c(=O)n2nc(N3CCOCC3)nc2n1CC(=O)Nc1ccc(C(F)(F)F)cc1Cl` [Example 2, N-(2-chloro-4-(trifluoromethyl)phenyl)-2-(5-ethyl-6-(4-(3-hydroxypicolinoyl)piperazin-1-yl)-2-morpholino-7-oxo-[1,2,4]triazolo[1,5-a]pyrimidin-4(7H)-yl)acetamide] the pIC50 (WRN helicase) was 7.10, the GI50 (SW48 cells; [1]) was 190 nM and the GI50 (DLD1-WRN-KO cells; Homo sapiens) was > 10000 nM.
`CCc1c(N2CCN(S(=O)(=O)c3ncccc3O)CC2)c(=O)n2nc(C3=CCOCC3)nc2n1CC(=O)Nc1ccc(C(F)(F)F)cc1Cl` [Example 137, N-(2-chloro-4-(trifluoromethyl)phenyl)-2-(2-(3,6-dihydro-2H-pyran-4-yl)-5-ethyl-6-(4-((3-hydroxypyridin-2-yl)sulfonyl)piperazin-1-yl)-7-oxo-[1,2,4]triazolo[1,5-a]pyrimidin-4(7H)-yl)acetamide] showed a pIC50 (WRN helicase) of 7.30, a GI50 (SW48 cells; [1]) of 240 nM and a GI50 (DLD1-WRN-KO cells; Homo sapiens) of 6100 nM.
For `CCc1c(N2CCN(C(=O)c3ncnc(C)c3O)[C@@H]3CC[C@@H]32)c(=O)n2nc(C3=CCOCC3)nc2n1CC(=O)Nc1ccc(C(F)(F)F)cc1Cl` (single isomer, unassigned) [Example 132], the pIC50 (WRN helicase) was 6.05, the GI50 (SW48 cells; read-out: Proliferation Assay SW48 (GI50), SW48 cell line, geometric means of at least 2 determinations) was 490 nM and the GI50 (DLD1-WRN-KO cells; DLD1-WRN-KO cell line, geometric means of at least 2 determinations) was > 10000 nM.
With `CCc1c(N2CCN(C(=O)c3nccc(Cl)c3O)CC2)c(=O)n2nc(C3=CCOCC3)nc2n1CC(=O)Nc1cc(F)c(C(F)(F)F)cc1C` [Example 95, 2-(6-(4-(4-chloro-3-hydroxypicolinoyl)piperazin-1-yl)-2-(3,6-dihydro-2H-pyran-4-yl)-5-ethyl-7-oxo-[1,2,4]triazolo[1,5-a]pyrimidin-4(7H)-yl)-N-(5-fluoro-2-methyl-4-(trifluoromethyl)phenyl)acetamide] the pIC50 (WRN helicase) was 7.30, the GI50 (SW48 cells; [1]) was 60 nM and the GI50 (DLD1-WRN-KO cells; Homo sapiens) was > 10000 nM.
For `[2H]C1([2H])N(C(=O)c2ncnc(C)c2O)C([2H])([2H])C([2H])([2H])N(c2c(CC)n(CC(=O)Nc3ccc(C(F)(F)F)cc3Cl)c3nc(C4=CCOCC4)nn3c2=O)C1([2H])[2H]` [Example 133, N-(2-chloro-4-(trifluoromethyl)phenyl)-2-(2-(3,6-dihydro-2H-pyran-4-yl)-5-ethyl-6-(4-(5-hydroxy-6-methylpyrimidine-4-carbonyl)piperazin-1-yl-2,2,3,3,5,5,6,6-d8)-7-oxo-[1,2,4]triazolo[1,5-a]pyrimidin-4(7H)-yl)acetamide], the GI50 (SW48 cells; [1]) was 60 nM.
`[2H]C([2H])(C(=O)Nc1ccc(C(F)(F)F)cc1Cl)n1c(CC)c(N2CCN(C(=O)c3ncnc(C)c3O)CC2)c(=O)n2nc(C3=CCOCC3)nc12` [Example 43, N-(2-chloro-4-(trifluoromethyl)phenyl)-2-(2-(3,6-dihydro-2H-pyran-4-yl)-5-ethyl-6-(4-(5-hydroxy-6-methylpyrimidine-4-carbonyl)piperazin-1-yl)-7-oxo-[1,2,4]triazolo[1,5-a]pyrimidin-4(7H)-yl)acetamide-2,2-d2] showed a GI50 (SW48 cells; [1]) of 50 nM.
Work on `CCc1c(N2CCN(C(=O)c3ncnc(C)c3O)CC2)c(=O)n2nc(C3=CCOCC3)nc2n1CC(=O)Nc1ccc(C(F)(F)F)cc1Cl` [Example 42, N-(2-chloro-4-(trifluoromethyl)phenyl)-2-(2-(3,6-dihydro-2H-pyran-4-yl)-5-ethyl-6-(4-(5-hydroxy-6-methylpyrimidine-4-carbonyl)piperazin-1-yl)-7-oxo-[1,2,4]triazolo[1,5-a]pyrimidin-4(7H)-yl)acetamide] yielded a GI50 (SW48 cells; [1]) of 50 nM.
Compound `Cc1c(N2CCN(C(=O)c3ncccc3O)CC2)c(=O)n2nc(C3=CCN(C(=O)OC(C)(C)C)CC3)nc2n1CC(=O)Nc1ccc(C(F)(F)F)cc1` [Example 126, tert-butyl 4-(6-(4-(3-hydroxypicolinoyl)piperazin-1-yl)-5-methyl-7-oxo-4-(2-oxo-2-((4-(trifluoromethyl)phenyl)amino)ethyl)-4,7-dihydro-[1,2,4]triazolo[1,5-a]pyrimidin-2-yl)-3,6-dihydropyridine-1(2H)-carboxylate] has a pIC50 (WRN helicase) of 6.89.
